A short description of data set [1]: Cytotoxicity against rat PC-12 cells assessed as cell viability at 100 uM measured after 24 hrs by CCK-8 assay (reference value: 100%). Format: toxicity, cell-based. The settings on record: read-out: Activity.
Data set [2] concerns the target Alpha-synuclein (Homo sapiens, UniProt P37840). Briefly: Inhibition of alpha-Synuclein (unknown origin) aggregation assessed as aggregation inhibition ratio measured after 72 hrs by Thioflavin T based fluorescence assay.

SMILES strings stand for the structures.

This passage reports viability and IC50 results from ChEMBL document CHEMBL5579795, “Therapeutic potential of Coumarin-polyphenolic acid hybrids in PD: Inhibition of α-Syn aggregation and disaggregation of preformed fibrils, leading to reduced neuronal inclusion formation” (Bioorg Med Chem Lett, 2024).

The term IC50 denotes the midpoint of a concentration-inhibition curve.

With `O=C(Nc1ccc2oc(=O)ccc2c1)c1cc(O)ccc1O`, the viability at 24 h, 100 µM in data set [1] was greater than 80%.

Turning to `O=C(/C=C/c1cc(O)ccc1O)Nc1ccc2oc(=O)c(NC(=O)/C=C/c3cc(O)ccc3O)cc2c1`, the viability at 24 h, 100 µM in data set [1] was greater than 90%.

On to `O=C(/C=C/c1cc(O)ccc1O)Nc1ccc2oc(=O)ccc2c1`, for which, in data set [1], the viability at 24 h, 100 µM is greater than 90%.

For `O=C(/C=C/c1cc(O)c(O)c(O)c1)Nc1ccc2oc(=O)ccc2c1`, the viability at 24 h, 100 µM in data set [1] is greater than 90%.

Take `Oc1cc(O)c2c(c1)O[C@H](c1cc(O)c(O)c(O)c1)[C@H](O)C2` [EPIGALLOCATECHIN]: the IC50 in data set [2] worked out at 2.58 µM.
